Assay results reported in patent publication US4492650A, “A54556 Antibiotics and process for production thereof” (Eli Lilly and Company, priority 1982, dated 1985).
In brackets after ≈: the same amount, converted by molar mass. Several values for one entry are separate records, joined by “and”; a condition that tells them apart may be missing. Equal values may be shown once. Read-outs that look alike come from different tables or passages of the source. Bridge positions count the residues as written; N and C are the ends. Square brackets hold non-standard residues; d marks the D form. Peptide text beside a SMILES is read from it. * marks the point of attachment. ξ: configuration not given here. Hexadienoyl(2E,4E) = C/C=C/C=C/C(=O)*; ξPro(4ξ-Me) = CC1CNC(C(=O)O)C1; NMeA = CN[CH](C)C(=O)O

Key:
[1] = system: Streptococcus sp. (Group D) X66; experiment: Disc-plate sensitivity; assay type: cell-based; conditions: second test, Table 13
[2] = system: Bacteroides fragilis 111; experiment: MIC, agar-dilution method; assay type: cell-based
Text: (§1) Antibiotic A54556 factors A, B, C, D, E, F, G, and H have been tested and found to be active against a number of anaerobic bacteria, as recorded in Table 14, which follows, the MIC values having been determined by the agar-dilution method.

[3] = system: Bacteroides fragilis 1877; experiment: MIC, agar-dilution method; assay type: cell-based
Text: as §1

[4] = system: Bacteroides fragilis 1936B; experiment: MIC, agar-dilution method; assay type: cell-based
Text: as §1

[5] = system: Bacteroides melaninogenicus 1856/28; experiment: MIC, agar-dilution method; assay type: cell-based; conditions: Prevotella intermedia
Text: as §1

[6] = system: Bacteroides melaninogenicus 2736; experiment: MIC, agar-dilution method; assay type: cell-based
Text: as §1

[7] = system: Bacteroides thetaiotaomicron 1438; experiment: MIC, agar-dilution method; assay type: cell-based
Text: as §1

[8] = system: Clostridium difficile 2994; experiment: MIC, agar-dilution method; assay type: cell-based; conditions: Clostridioides difficile
Text: as §1

[9] = system: Clostridium septicum 1128; experiment: MIC, agar-dilution method; assay type: cell-based
Text: as §1

[10] = system: Eubacterium aerofaciens 1235; experiment: MIC, agar-dilution method; assay type: cell-based; conditions: Collinsella aerofaciens
Text: as §1

[11] = system: Fusobacterium necrophorum 6054A; experiment: MIC, agar-dilution method; assay type: cell-based
Text: as §1

[12] = system: Peptostreptococcus intermedius 1264; experiment: MIC, agar-dilution method; assay type: cell-based
Text: as §1

[13] = system: Propionibacterium acnes 79; experiment: MIC, agar-dilution method; assay type: cell-based; conditions: Cutibacterium acnes
Text: as §1

[14] = system: Clostridium perfringens 81; experiment: microbe, parasite or virus in culture; assay type: cell-based
[15] = system: Peptococcus asaccharolyticus 1302; experiment: MIC, agar-dilution method; assay type: cell-based; conditions: Peptoniphilus asaccharolyticus, agar-dilution, read-out: MIC
[16] = system: Peptococcus prevoti 1281; experiment: MIC, agar-dilution method; assay type: cell-based
[17] = system: Peptostreptococcus anaerobius 1428; experiment: MIC, agar-dilution method; assay type: cell-based
[18] = system: Bacteroides vulgatis 1211; experiment: MIC, agar-dilution method; assay type: cell-based
[19] = system: Bacteroides corrodens 1874; experiment: MIC, agar-dilution method; assay type: cell-based; conditions: Eikenella corrodens
[20] = system: Fusobacterium symbiosum 1470; experiment: MIC, agar-dilution method; assay type: cell-based
[21] = system: S. pyogenes; experiment: In vivo protection against experimental bacterial infection in mice; conditions: Streptococcus pyogenes, sc, two doses subcutaneously
Procedure: (§2) When two doses of test compound were administered subcutaneously to mice in illustrative infections, the activity is measured as an ED50 value [effective does in mg./kg. to protect fifty percent of the test animals: See Warren Wick et al., J. Bacteriol. 81, 233-235 (1961)]. The ED50 values for these antibiotic A54556 factors are recorded in Table 15, which follows.

[22] = Electrometric titration; assay type: physicochemical; conditions: 66 percent dimethylformamide in water
Text: Antibiotic A54556 factor A is a tan, amorphous solid. […] As determined by electron impact and field desorption mass spectrometry, A54556 factor A has a molecular weight of 718.

[23] = system: anaerobic bacteria; experiment: Activity against anaerobic bacteria; assay type: cell-based; conditions: agar-dilution method
[24] = system: experimental bacterial infections; experiment: In vivo antimicrobial activity against experimental bacterial infections; conditions: mice, subcutaneously
Procedure: as §2

[25] = system: Staphylococcus aureus 3055; conditions: second test, Table 13, benzylpenicillin-susceptible
[26] = system: Streptococcus pyogenes (Group A) C203; conditions: second test, Table 13
[27] = system: Streptococcus pneumoniae Park I; conditions: second test, Table 13
[28] = system: Staphylococcus aureus V41; conditions: second test, Table 13, benzylpenicillin resistant
[29] = system: Staphylococcus epidermidis EPI1; conditions: second test, Table 13
[30] = Solubility; conditions: lower alcohols (methyl, ethyl, isopropyl, n-propyl, n-butyl), acetone, ethyl acetate, tetrahydrofuran, pyridine, dimethyl sulfoxide

C/C=C/C=C/C(=O)NC(Cc1ccccc1)C(=O)NC1COC(=O)C2CCCN2C(=O)C(C)NC(=O)C(C)N(C)C(=O)C2CC(C)CN2C1=O (stereo not drawn) [Factor C] ({Hexadienoyl(2E,4E)}-FS[ξPro(4ξ-Me)][NMeA]AP; ester 2-C; configuration not given here)
Zone diameter ([1]; 30 mcg./disc): 25 mm.
Zone diameter ([1]; 300 mcg./disc, listed as C): 35 mm.
zone of inhibition at 30 µg/disc ([1]; Streptococcus, 30 mcg./disc, read-out: Zone diameter): 24 mm
zone of inhibition at 300 µg/disc ([1]; Streptococcus, 300 mcg./disc, read-out: Zone diameter): 25 mm
MIC [2]: > 128 µg/mL
MIC [3]: > 128 µg/mL
MIC [4]: > 128 µg/mL
MIC [5]: > 128 µg/mL
MIC [6]: > 128 µg/mL
MIC [7]: > 128 µg/mL
MIC [8]: > 128 µg/mL
MIC [9]: > 128 µg/mL
MIC [10]: > 128 µg/mL
MIC [11]: > 128 µg/mL
MIC [12]: > 128 µg/mL
MIC [13]: 32 µg/mL (≈ 46.2 µM)
MIC [14]: > 128 µg/mL
MIC [15]: 16 µg/mL (≈ 23.1 µM)
MIC [16]: > 128 µg/mL
MIC [17]: > 128 µg/mL
MIC [18]: > 128 µg/mL
MIC [19]: > 128 µg/mL
MIC [20]: > 128 µg/mL
ED50 [21]: 11.1 mg/kg
titratable groups [22]: no titratable groups
activity against a number of anaerobic bacteria [23]: active
in vivo antimicrobial activity against experimental bacterial infections [24]: have shown in vivo antimicrobial activity
Zone diameter ([25]; 30 mcg./disc): 21 mm. and 23 mm.
Zone diameter ([25]; 300 mcg./disc): 25 mm. and 31 mm.
Zone diameter ([26]; 30 mcg./disc): 22 mm. and 28 mm.
Zone diameter ([26]; 300 mcg./disc): 30 mm.
Zone diameter ([26]; 300 mcg./disc, listed as C): 33 mm.
Zone diameter ([27]; 30 mcg./disc): 25 mm. and 30 mm.
Zone diameter ([27]; 300 mcg./disc): 30 mm.
Zone diameter ([27]; 300 mcg./disc, listed as C): 35 mm.
Zone diameter ([28]; 30 mcg./disc): 24 mm.
Zone diameter ([28]; 30 mcg./disc, listed as C): 21 mm.
Zone diameter ([28]; 300 mcg./disc): 30 mm. and 25 mm.
Zone diameter ([29]; 30 mcg./disc): 21 mm. and 23 mm.
Zone diameter ([29]; 300 mcg./disc): 24 mm.
Zone diameter ([29]; 300 mcg./disc, listed as C): 26 mm.
solubility in organic solvents [30]: soluble
